From ChEMBL document CHEMBL5241087, “A review on the structures and biological activities of anti-Helicobacter pylori agents” (Eur J Med Chem, 2021)
Converted amounts (≈) assume the structure as drawn. One block for each compound: values may come before it.

Assays:
Helicobacter pylori [1] = assay: Antibacterial activity against metronidazole-resistant Helicobacter pylori assessed as diameter of zone inhibition at 16 to 32 ug per disk incubated for 2 to 10 days by disk diffusion assay; type: functional; conditions: dose 16-32 µg; time 2-10 day
Helicobacter pylori [2] = assay: Antibacterial activity against metronidazole-resistant Helicobacter pylori incubated for 72 hrs; type: functional
Helicobacter pylori [3] = assay: Antimicrobial activity against Helicobacter pylori KA05 assessed as inhibition of bacterial growth by broth dilution method; type: functional
[4] = Inhibition of Helicobacter pylori GatCAB assessed as inhibition constant
[5] = Inhibition of Helicobacter pylori IMPDH incubated for 10 mins by multilabel reader analysis
Helicobacter pylori [6] = assay: Antimicrobial activity against Helicobacter pylori assessed as inhibition of bacterial growth incubated for 72 hrs by broth dilution method; type: functional
Helicobacter pylori [7] = assay: Antibacterial activity against metronidazole-resistant Helicobacter pylori assessed as diameter of zone inhibition at 12.5 to 100 ug per disk by paper disk diffusion assay; type: functional; conditions: dose 12.5-100 µg
Helicobacter pylori [8] = assay: Antibacterial activity against Helicobacter pylori; type: functional
Helicobacter pylori [9] = assay: Antibacterial activity against metronidazole-resistant Helicobacter pylori assessed as inhibition zone at 50 ug per disk by paper disk diffusion assay; type: functional; conditions: read-out: IZ
Helicobacter pylori [10] = assay: Antibacterial activity against Helicobacter pylori assessed as diameter of zone inhibition at 12.5 to 100 ug per disk incubated for […] by disk diffusion assay; type: functional; conditions: dose 12.5-100 µg
Helicobacter pylori [11] = assay: Antibacterial activity against Helicobacter pylori assessed as diameter of zone inhibition at 25 to 100 ug per disk incubated for […] by disk diffusion assay; type: functional; conditions: dose 25-100 µg
Helicobacter pylori [12] = assay: Antibacterial activity against Helicobacter pylori P12 assessed as reduction in bacterial growth by broth microdilution method; type: functional
Helicobacter pylori [13] = assay: Antibacterial activity against Helicobacter pylori SS1 assessed as reduction in bacterial growth by broth microdilution method; type: functional
[14] = Inhibition of Helicobacter pylori IMPDH
Helicobacter pylori [15] = assay: Antibacterial activity against Helicobacter pylori assessed as bacterial growth inhibition; type: functional
[16] = Inhibition of Helicobacter pylori IMPDH incubated for 10 mins in presence of […] by multilabel reader analysis
Glutamate racemase = biological target: T1, Glutamate racemase (Helicobacter pylori J99, UniProt Q9ZLT0); assay: Inhibition of Helicobacter pylori Glutamate racemase
T1 sequence (Q9ZLT0 whole entry): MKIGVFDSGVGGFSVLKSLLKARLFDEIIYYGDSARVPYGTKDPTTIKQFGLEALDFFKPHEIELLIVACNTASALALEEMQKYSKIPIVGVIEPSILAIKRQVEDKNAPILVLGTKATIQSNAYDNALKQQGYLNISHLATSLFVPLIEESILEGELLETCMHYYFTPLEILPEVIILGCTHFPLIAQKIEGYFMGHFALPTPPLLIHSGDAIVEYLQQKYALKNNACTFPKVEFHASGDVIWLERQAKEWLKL

Helicobacter pylori [17] = assay: Antibacterial activity against wild type Helicobacter pylori; type: functional
[18] = biological target: T2, Aminodeoxyfutalosine nucleosidase (Helicobacter pylori (strain J99 / ATCC 700824) (Campylobacter pylori J99), UniProt Q9ZMY2); assay: Inhibition of Helicobacter pylori MTAN assessed as dissociation constant
T2 sequence (Q9ZMY2 whole entry): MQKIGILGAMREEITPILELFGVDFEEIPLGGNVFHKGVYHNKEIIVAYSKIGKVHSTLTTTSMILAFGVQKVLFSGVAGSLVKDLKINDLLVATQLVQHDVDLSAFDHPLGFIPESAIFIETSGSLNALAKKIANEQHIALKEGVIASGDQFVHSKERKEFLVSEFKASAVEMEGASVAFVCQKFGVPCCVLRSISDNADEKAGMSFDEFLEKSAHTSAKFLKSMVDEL

Helicobacter pylori [19] = assay: Inhibition of Helicobacter pylori IMPDH at 10 uM incubated for 10 mins in presence of […] by multilabel reader analysis relative to control
[20] = biological target: Inosine-5'-monophosphate dehydrogenase 2 (Homo sapiens) (UniProt P12268); assay: Inhibition of human IMPDH at 10 uM incubated for 10 mins by multilabel reader analysis relative to control
Inosine-5'-monophosphate dehydrogenase 2 (Homo sapiens), sequence (P12268 2-514 limits assumed): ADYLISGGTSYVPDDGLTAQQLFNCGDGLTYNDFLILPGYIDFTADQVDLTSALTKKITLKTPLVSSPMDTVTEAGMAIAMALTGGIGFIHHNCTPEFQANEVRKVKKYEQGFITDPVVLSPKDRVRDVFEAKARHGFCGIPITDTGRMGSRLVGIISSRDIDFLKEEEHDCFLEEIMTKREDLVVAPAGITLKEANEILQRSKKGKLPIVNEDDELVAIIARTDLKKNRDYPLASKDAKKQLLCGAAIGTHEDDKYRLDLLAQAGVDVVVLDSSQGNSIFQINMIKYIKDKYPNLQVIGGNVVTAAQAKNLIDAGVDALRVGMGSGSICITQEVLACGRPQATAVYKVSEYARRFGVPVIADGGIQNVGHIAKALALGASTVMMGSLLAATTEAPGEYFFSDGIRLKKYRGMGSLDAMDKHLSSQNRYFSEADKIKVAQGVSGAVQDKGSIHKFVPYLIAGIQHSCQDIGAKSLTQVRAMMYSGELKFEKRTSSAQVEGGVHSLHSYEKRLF

Helicobacter pylori [21] = assay: Antibacterial activity against clinical isolate Helicobacter pylori assessed as bacterial growth inhibition incubated for 72 hrs by agar dilution method; type: functional
[22] = Inhibition of urease (unknown origin)
[23] = Antioxidant activity assessed as radical scavenging activity; type: functional
Helicobacter pylori [24] = assay: Antibacterial activity against Helicobacter pylori ATCC 43504 assessed as bacterial growth inhibition; type: functional
[25] = Plasma protein binding in human; type: ADME, cell-free; conditions: read-out: PPB (converted)
Helicobacter pylori [26] = assay: Antimicrobial activity against Helicobacter pylori EP1757 assessed as inhibition of bacterial growth; type: functional
Helicobacter pylori [27] = assay: Antimicrobial activity against Helicobacter pylori EP1836 assessed as inhibition of bacterial growth; type: functional
Helicobacter pylori [28] = assay: Antibacterial activity against metronidazole-resistant Helicobacter pylori ATCC 43504; type: functional, organism-based

Compound: CO/N=C(/CN1CCN(c2cc3c(cc2F)c(=O)c(C(=O)O)cn3C2CC2)CC1)c1ccccc1Cl
- diameter of the inhibition zone (DIZ) (Helicobacter pylori [1]): 6 mm

Compound: O=c1oc2ccccc2cc1-c1csc(N/N=C/c2ccco2)n1
- MIC (Helicobacter pylori [2]): ≥ 16 µg/mL

- MIC (Helicobacter pylori [3]): 50 µg/mL (≈ 141 µM)
Compound: COc1cc2ccc(=O)oc2cc1O[C@@H]1O[C@H](CO)[C@@H](O)[C@H](O)[C@H]1O [SCOPOLIN]

- Ki [4]: 4000 nM
- IC50 [5]: 1270 nM
Compound: CN(C)c1ncnc2c1ncn2[C@@H]1O[C@H](CO)[C@@H](NC(=O)[C@@H](N)CCS(C)(=O)=O)[C@H]1O

- MIC50 (Helicobacter pylori [6]): 2 µg/mL (≈ 13.3 µM)
Compound: CC1=C(C=O)C(C)(C)CC=C1

Compound: CC(Sc1nnc(-c2ncc([N+](=O)[O-])n2C)s1)c1ccccc1 (centres undefined)
- diameter of the inhibition zone (DIZ) (Helicobacter pylori [7]): >50 mm

- MIC (Helicobacter pylori [8]): 12.5 µg/mL (≈ 23.7 µM)
Compound: C=C(C)C(CC=C(C)C)CC1(CC=C(C)C)C(=O)C(C(CCC)CC(=O)O)=C2O[C@H](C)[C@@H](C)C(=O)C2=C1O (some centres undefined)

Compound: O=C(CSc1nnc(-c2ccc([N+](=O)[O-])o2)s1)c1ccccc1Cl
- zone of inhibition at 50 µg/disc (Helicobacter pylori [9]): ≥ 20 mm

Compound: CCCNC(=O)CSc1nnc(-c2ccc([N+](=O)[O-])o2)s1
- diameter of the inhibition zone (DIZ) (Helicobacter pylori [10]): 33 mm
- diameter of the inhibition zone (DIZ) (Helicobacter pylori [11]): 10 mm

- MIC (Helicobacter pylori [3]): 50 µg/mL (≈ 260 µM)
Compound: COc1cc2ccc(=O)oc2cc1O [SCOPOLETIN]

- MIC (Helicobacter pylori [12]): 200 µM (≈ 51.7 µg/mL)
- MIC (Helicobacter pylori [13]): 200 µM (≈ 51.7 µg/mL)
Compound: CCOc1ccc2nc(S(N)(=O)=O)sc2c1 [ETHOXZOLAMIDE]

- Ki [4]: 4000 nM
Compound: COc1ccc(C[C@H](N)C(=O)N[C@H]2[C@@H](O)[C@H](n3cnc4c(N(C)C)ncnc43)O[C@@H]2CO)cc1 [PUROMYCIN]

- IC50 [14]: 800 nM
Compound: O=C(Cn1cc(/N=N/c2cccnc2)c2ccccc21)Nc1ccc(Cl)cc1

- MIC (Helicobacter pylori [15]): < 1.5 µg/mL
Compound: Cn1c([N+](=O)[O-])cnc1/C=C1\S/C(=N/c2cccs2)NC1=O

- IC50 [16]: 2210 nM
Compound: O=C(COc1ccc2ccccc2c1)Nc1ccc2c(c1)COC2=O

- IC50 [5]: 1270 nM
Compound: Clc1ccc(Cn2cc(COc3cccc4ccccc34)nn2)cc1Cl

- IC50 (Glutamate racemase): 26 nM
- MIC (Helicobacter pylori [17]): 0.5 µg/mL (≈ 1 µM)
Compound: Cn1cc(C#N)cc1-c1c2c(=O)n(C)c(=O)n(CC3CC3)c2nn1Cc1ccnc2ccc(Cl)cc12

- Kd [18]: < 50 nM
Compound: CCCCCCSC[C@H]1CN(Cc2c[nH]c3c(N)ncnc23)C[C@@H]1O

- MIC (Helicobacter pylori [8]): 250 µg/mL (≈ 898 µM)
Compound: CCCCCCCOC(=O)/C=C/c1ccc(O)c(O)c1

- inhibition (Helicobacter pylori [19]): > 70%
- IC50 [16]: 2210 nM
- inhibition [20]: 57%
- IC50 [5]: 1880 nM
Compound: COc1ccc(-c2oc3ccccc3c(=O)c2OCC(=O)Nc2ccc3c(c2)COC3=O)cc1

- Kd [18]: < 50 nM
Compound: CCCCSC[C@H]1CN(Cc2c[nH]c3c(N)ncnc23)C[C@@H]1O

- MIC (Helicobacter pylori [15]): < 1.5 µg/mL
Compound: O=C1N/C(=N\c2cccs2)S/C1=C\c1ccc([N+](=O)[O-])o1

- MIC (Helicobacter pylori [21]): 32 µg/mL (≈ 120 µM)
Compound: Cn1cnc([N+](=O)[O-])c1S(=O)(=O)c1ccccc1

- MIC90 (Helicobacter pylori [6]): 4 µM (≈ 0.893 µg/mL)
Compound: CC1=C(/C=N/NC(N)=S)C(C)(C)CC=C1

- IC50 [22]: 1100 nM
Compound: CN(O)C(=O)CC(O)c1cccc(Cl)c1 (centres undefined)

Compound: NNc1nc(-c2cc3ccccc3oc2=O)cs1
- MIC (Helicobacter pylori [2]): ≥ 16 µg/mL

Compound: Cc1ncc([N+](=O)[O-])n1CCO [METRONIDAZOLE]
- MIC (Helicobacter pylori [21]): 2 µg/mL (≈ 11.7 µM)
- diameter of the inhibition zone (DIZ) (Helicobacter pylori [11]): 10 mm
- ED50 [23]: 5.4 µg/mL (≈ 31.6 µM)
- MIC (Helicobacter pylori [15]): > 254 µg/mL

- MIC (Helicobacter pylori [8]): 0.78 µg/mL (≈ 1.04 µM)
Compound: CC[C@H]1OC(=O)[C@H](C)[C@@H](O[C@H]2C[C@@](C)(OC)[C@@H](O)[C@H](C)O2)[C@H](C)[C@@H](O[C@@H]2O[C@H](C)C[C@H](N(C)C)[C@H]2O)[C@](C)(OC)C[C@@H](C)C(=O)[C@H](C)[C@@H](O)[C@]1(C)O [CLARITHROMYCIN]

- MIC (Helicobacter pylori [8]): 250 µg/mL (≈ 1060 µM)
Compound: CCCCOC(=O)/C=C/c1ccc(O)c(O)c1 [BUTYL CAFFEATE]

- IC50 [14]: 800 nM
Compound: O=C(Cn1cc(/N=N/c2cccnc2)c2ccccc21)Nc1ccc2ccccc2c1

- MIC50 (Helicobacter pylori [8]): 0.3 µM (≈ 0.0781 µg/mL)
- MIC90 (Helicobacter pylori [8]): 0.39 µM (≈ 0.101 µg/mL)
Compound: COC1=CC(=O)c2c(cc(C)c(C(C)=O)c2O)C1=O

- MIC (Helicobacter pylori [24]): 0.39 µg/mL (≈ 0.921 µM)
Compound: Cc1ncc([N+](=O)[O-])n1CCOc1cc(O)c2c(=O)c(-c3ccc(O)cc3)coc2c1

- fraction unbound [25]: 0.56
- IC50 [22]: 150 nM
Compound: O=C(CC(O)c1cc(Cl)ccc1OCc1ccccc1)NO (centres undefined)

- MIC (Helicobacter pylori [8]): 50 µg/mL (≈ 94.9 µM)
Compound: C=C(C)CCC(CC1(CC=C(C)C)C(=O)C(C(CCC)CC(=O)O)=C2O[C@H](C)[C@@H](C)C(=O)C2=C1O)C(=C)C (some centres undefined)

- Kd [18]: < 50 nM
Compound: CCCSC[C@H]1CN(Cc2c[nH]c3c(N)ncnc23)C[C@@H]1O

- MIC50 (Helicobacter pylori [6]): 2 µg/mL (≈ 5.43 µM)
Compound: CC1=C(/C=N/Nc2nc(-c3cccc([N+](=O)[O-])c3)cs2)C(C)(C)CC=C1

- MIC90 (Helicobacter pylori [6]): 4 µM (≈ 0.949 µg/mL)
Compound: CC1=C(/C=N/N(C)C(N)=S)C(C)(C)CC=C1

- MIC (Helicobacter pylori [26]): 0.00078 µg/mL (≈ 0.00159 µM)
- MIC (Helicobacter pylori [27]): 0.00313 µg/mL (≈ 0.00638 µM)
Compound: NC(=O)Cc1csc(SC2=C(C(=O)O)N3C(=O)[C@@H](NC(=O)Cc4ccccc4)[C@H]3SC2)n1

Compound: CN(CCO)CC(O)COc1cccc2c(=O)c3ccccc3oc12.Cl (centres undefined)
- IC50 (Helicobacter pylori [28]): 5 µg/mL

- MIC (Helicobacter pylori [15]): 64 µg/mL (≈ 202 µM)
Compound: COC1=CC(=O)c2c(c(OC)c3cc(C)oc(=O)c3c2O)C1=O
- ED50 [23]: 1.58 µg/mL (≈ 5 µM)
